The values below come from US11992490B2, “Use of JAK1 inhibitors for the treatment of cutaneous lupus erythematosus and Lichen planus (LP)” (Incyte Corporation, priority 2019, dated 2024).

The target of test [1] is human JAK1 (a.a. 837-1142) (Homo sapiens, UniProt P23458). Kind of test: In vitro JAK kinase assay (HTRF), JAK1. Format: biochemical. The note with it: 1 mM ATP.
Test [2] addresses human JAK2 (a.a. 828-1132) (Homo sapiens (Human), UniProt O60674). Kind of test: In vitro JAK kinase assay (HTRF), JAK2. Format: biochemical. As to conditions: JAK2/JAK1 IC50 ratio, 1 mM ATP. For orientation: In TR-FRET formats the signal depends on donor and acceptor labels being close together.
In test [3] the test system is JAK1-phosphorylation in HaCaT keratinocytes. Kind of test: JAK1-phosphorylation (anti-pJAK1 immunofluorescence) in eNA-stimulated HaCaT. As to conditions: inhibitor 1 μM. It is filed as cell-based, human.
Test [4] relates to CLE-typical genes in NHEK. Kind of test: Gene expression (RNA sequencing, KEGG pathways) in eNA-stimulated NHEK. Format: cell-based, human. The note with it: for Count: number of genes >2-fold downregulated: NHEK. As for the experimental part:
To analyze the functional principle and effect of JAK inhibition, the following established in vitro models of CLE were used. Immortalized keratinocytes (HaCaT), were acquired from CLS Cell Lines Service GmbH, Eppelheim, Germany), normal human epidermal keratinocytes (NHEKs, FC-0025) and Human epidermis equivalents (epiCS, CS-1001) from CellSystems, Troisdorf, Germany. These cell lines were cultured according the manufactures protocols. Cultured keratinocytes were stimulated with endogenous nucleic acids (eNA, 1.25 μg/mL) isolated from unstimulated keratinocytes using the “Genomic DNA from tissue” kit (Machery-Nagel, Dueren, Germany). Lipofectamine 2000 (Invitrogen, Carlsbad, USA) functioned as a transfection reagent (2.5 μL/mL). […] All experiments were implemented in biological triplicates. Enzyme-linked immunosorbent assays for human CXCL10 (DY266-05 R&D systems) were performed using DuoSet Ancillary Reagent Kit 2 (DY008 R&D systems) according to the supplied protocol, measured by Synergy HT Multi-Detection Multiplate Reader (BioTek, Winooski, VT, USA) and read out with Gen5 software (version 1.11.5).
To investigate the efficacy of pharmacological JAK1 inhibition, in vitro analyses in three different CLE-models were performed (i) NHEK-cells, (ii) HaCaT-cells and (iii) 3D epidermis equivalents.

The test system of test [5] is TREX1−/− mice. Kind of test: Topical treatment of CLE-like lesions in UV-stimulated lupus-prone TREX1-/- mice. As to conditions: 1% topical, seven days. It is filed as in vivo, mouse. The text has this:
TREX1^−/− mice (generated on C57BL/6J background; Cancer Research Institute, London, UK) were bred and maintained under specific pathogen-free conditions at the animal core facility of UKB Bonn (HET, Bonn, Germany). TREX1^−/− mice (n=8) were back-shaved and treated with 0.2% DNFB (1-Fluor-2,4-dinitrobenzol, Sigma Aldrich). 4 days later, UV-irradiation on 3 sequential days started with 450 mJ/cm^2 UVB for 115 seconds per day using UV801KL (Waldmann, Villingen-Schwenningen, Germany). For 7 days 1% INCB039110 or vehicle solved in DMSO and olive oil (50 μL per mouse) were applied topically. Every day photos of mice were taken and every 2 days mice were weighed.

In test [6] the test system is patients with systemic lupus erythematosus. The note with it: cited from earlier work.
Test [7] deals with SLE patients. The note with it: cited from earlier work.

A word on the IC50: it is the concentration that inhibits the measured activity by half. Higher therefore signals weaker potency in that assay.

human JAK2 (a.a. 828-1132), sequence (O60674 828-1132): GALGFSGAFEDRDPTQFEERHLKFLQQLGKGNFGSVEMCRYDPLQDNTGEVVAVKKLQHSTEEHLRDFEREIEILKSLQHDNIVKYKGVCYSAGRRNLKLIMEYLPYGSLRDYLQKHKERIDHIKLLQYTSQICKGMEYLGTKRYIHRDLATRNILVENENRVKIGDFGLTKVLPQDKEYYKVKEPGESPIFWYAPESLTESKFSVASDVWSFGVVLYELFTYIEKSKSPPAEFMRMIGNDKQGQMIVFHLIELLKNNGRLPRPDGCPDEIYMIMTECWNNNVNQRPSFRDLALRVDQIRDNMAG

As to `N#CCC1(n2cc(-c3ncnc4[nH]ccc34)cn2)CN(C2CCN(C(=O)c3ccnc(C(F)(F)F)c3F)CC2)C1` [Compound 1, {1-{1-[3-Fluoro-2-(trifluoromethyl)isonicotinoyl]piperidin-4-yl}-3-[4-(7H-pyrrolo[2,3-d]pyrimidin-4-yl)-1H-pyrazol-1-yl]azetidin-3-yl}acetonitrile], the concentration for half-maximal inhibition (IC50) in test [1] is below 10 nM. The JAK2/JAK1 in test [2] was above 10. The “activation of JAK1 (JAK1-phosphorylation)” value in test [3] is listed as “significantly decreased”. The “Count: number of genes >2-fold downregulated” value in test [4] (Arachidonic acid metabolism hsa00590) turned out to be 4; in test [4] (Chemokine signalling pathway hsa04062) it was 5; in test [4] (Cytokine-cytokine receptor interaction hsa04060), 9; in test [4] (Cytosolic DNA-sensing pathway hsa04623), 3; in test [4] (Ether lipid metabolism hsa00565) it was 3; in test [4] (Linoleic acid metabolism hsa00591), 3. The “Count: number of genes >2-fold downregulated” value in test [4] (Toll-like receptor signalling pathway hsa04620) was 4; in test [4] (alpha-Linolenic acid metabolism hsa00592), 3. The “downregulated expression of CLE-typical genes” value in test [4] (eNA-stimulated NHEK, p<0.05) is on record as above 2 fold. In test [5], the “histological features: epidermal thickness and infiltrating dermal immune cells” value is reported as “significantly improved”. The “lesional skin regarding erythema, induration, scaling and size” value in test [5] was “continuously improved”. The “lupus-skin-activity-score (adapted CLASI score)” value in test [5] (compared to placebo-treated mice) was “significantly reduced”.
Regarding `CCS(=O)(=O)N1CC(CC#N)(n2cc(-c3ncnc4[nH]ccc34)cn2)C1` [baricitinib], the “efficacy in treatment of SLE” value in test [6] (2 mg or 4 mg once daily for 24 weeks, vs placebo) was “not effective”. Besides, the CLASI activity score result in test [6] (exploratory end point) is on record as “no improvement”.

B1: anifrolumab: anti-IFNαβ-receptor antibody (antibody, chains of the INN, looked up)
heavy: EVQLVQSGAEVKKPGESLKISCKGSGYIFTNYWIAWVRQMPGKGLESMGIIYPGDSDIRYSPSFQGQVTISADKSITTAYLQWSSLKASDTAMYYCARHDIEGFDYWGRGTLVTVSSASTKGPSVFPLAPSSKSTSGGTAALGCLVKDYFPEPVTVSWNSGALTSGVHTFPAVLQSSGLYSLSSVVTVPSSSLGTQTYICNVNHKPSNTKVDKRVEPKSCDKTHTCPPCPAPEFEGGPSVFLFPPKPKDTLMISRTPEVTCVVVDVSHEDPEVKFNWYVDGVEVHNAKTKPREEQYNSTYRVVSVLTVLHQDWLNGKEYKCKVSNKALPASIEKTISKAKGQPREPQVYTLPPSREEMTKNQVSLTCLVKGFYPSDIAVEWESNGQPENNYKTTPPVLDSDGSFFLYSKLTVDKSRWQQGNVFSCSVMHEALHNHYTQKSLSLSPG
light: EIVLTQSPGTLSLSPGERATLSCRASQSVSSSFFAWYQQKPGQAPRLLIYGASSRATGIPDRLSGSGSGTDFTLTITRLEPEDFAVYYCQQYDSSAITFGQGTRLEIKRTVAAPSVFIFPPSDEQLKSGTASVVCLLNNFYPREAKVQWKVDNALQSGNSQESVTEQDSKDSTYSLSSTLTLSKADYEKHKVYACEVTHQGLSSPVTKSFNRGEC
B1: the CLASI skin score entry in test [7] is on record as “significantly reduced”.
